According to patent US8337914B2, “Dietary food supplement containing natural cyclooxygenase inhibitors and methods for inhibiting pain and inflammation” (Access Business Group International LLC, priority 1999, dated 2012):

Biological target: T1, COX-2 (Homo sapiens, UniProt P35354)
T1 construct: purchased
T1 sequence (P35354 18-604): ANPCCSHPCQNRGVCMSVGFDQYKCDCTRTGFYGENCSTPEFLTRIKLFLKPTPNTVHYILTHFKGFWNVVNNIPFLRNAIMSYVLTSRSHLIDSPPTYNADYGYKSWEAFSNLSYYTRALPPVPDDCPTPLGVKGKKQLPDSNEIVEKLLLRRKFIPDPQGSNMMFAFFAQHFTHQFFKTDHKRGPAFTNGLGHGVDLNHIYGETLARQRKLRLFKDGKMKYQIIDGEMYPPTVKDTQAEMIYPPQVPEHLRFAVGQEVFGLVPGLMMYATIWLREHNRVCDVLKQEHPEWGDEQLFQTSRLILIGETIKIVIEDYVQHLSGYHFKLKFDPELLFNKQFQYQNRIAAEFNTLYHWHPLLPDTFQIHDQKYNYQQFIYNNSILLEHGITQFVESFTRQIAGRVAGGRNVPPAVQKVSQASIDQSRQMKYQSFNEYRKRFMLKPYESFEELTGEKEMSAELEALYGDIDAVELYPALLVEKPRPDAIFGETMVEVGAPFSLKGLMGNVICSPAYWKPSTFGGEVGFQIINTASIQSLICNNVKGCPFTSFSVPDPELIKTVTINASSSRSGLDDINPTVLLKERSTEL
Test: COX-2 enzyme assay with oxygen monitoring system (Example 3)
Type: biochemical
Settings: for Specific Activity: the higher this number the more selective for COX-2 as opposed to COX-1
Method: The present example describes an enzyme assay method using an oxygen monitoring system to monitor the COX inhibitory activity of fruit extracts. In this assay the changes of concentration of dissolved oxygen are constantly monitored by an oxygen electrode in a Dissolved Oxygen Measuring System (Instech, Plymouth Meeting, Pa.). The output is recorded by a linear Recorder (Fisher Scientific, Pittsburgh, Pa.).
Each day a fresh potassium chloride solution (15 g/100 ml distilled water) was made and the electrode was set up according to manufacturers instructions. The chamber is kept at 37° C.
A prostaglandin assay kit was used and the assay set up in a manner similar to that described for the COX-1 assay. Briefly, 50 μl phenol was added to 20 ml 100 mM Tris buffer, warmed to 37° C. for 1 minute (working buffer). To a tube of hematin 0.9 ml of the working buffer was added. 50 μl 0.1NaOH was added to an arachidonic acid vial and vortexed. 0.43 ml water was added and the solution mixed again. Samples of extracts were weighed and dissolved in the working buffer to a final concentration of 0.1 g/ml. Buffer, samples or diluted samples are used in the enzyme assays directly.
The enzyme assay is performed according to the manufacturer's instruction, which should be well known to those of skill in the art. Briefly, 600 μl of working buffer were drawn into the chamber from the overflow outlet with the injection valve close, and the main outlet connected to a syringe in the right orientation. The stir bar was set a speed of 3 k/min. At 1 minute intervals, 5 ul enzyme, 15 ul hematin solution, 6 ul buffer or sample or diluted sample and 8 ul arachidonic acid solution was injected. The oxygen concentration changes were transformed into mV and recorded.

| Structure (SMILES) | Specific Activity | Potency compared to Celebrex (COX-2 potency relative to Celebrex) [%] |
| --- | --- | --- |
| CC(=O)Oc1ccccc1C(=O)O [Aspirin] | 0.5 |  |
| O=c1c(O)c(-c2ccc(O)c(O)c2)oc2cc(O)cc(O)c12 [Quercetin standard, Quercetin] | 6.3 | 78 |
